# Earlier results as cited in PubChem BioAssay AID1259410 (Chemical Carcinogenesis Research Information System (CCRIS), 2018).
# Test system: rodent tumor promotion studies, tumor incidence
# Assay: CCRIS tumor promotion studies
compound,measurement,setting,value
CCC1(c2ccccc2)C(=O)N=C(O)NC1=O (stereo unspecified),outcome,"Carcinogen: 2-(ACETYLAMINO)FLUORINE, Doses [Carcinogen]: 0.02% IN DIET FOR 4 WK, Doses [Promoter]: 0.05% IN DIET FOR 32 WK, Route [Carcinogen]: ORAL, Route [Promoter]: ORAL, Species: RAT, Strain/Sex: F344/MALE",liver: hepatocellular carcinoma
same,outcome,"Carcinogen: DIETHYLNITROSAMINE, 55-18-5, 2-ACETYLAMINOFLUORENE, 6292-55-3, CARBON TETRACHLORIDE, 56-23-5, Carcinogen: DIETHYLNITROSAMINE, 55-18-5, 2-ACETYLAMINOFLUORENE, 6292-55-3, CARBON TETRACHLORIDE, 56-23-5, Doses [Carcinogen]: 200 MG/KG ONCE FOLLOWED 2 WK LATER BY 0.03% 2-ACETYLAMINOFLUORENE IN DIET FOR 2 WK PLUS 2 ML/KG CARBON TETRACHLORIDE IN, Doses [Promoter]: 0.05% IN DIET STARTING 1 WK POST 2-ACETYLAMINOFLUORENE AND CONTINUED FOR 6 MO (STUDY DURATION: 7 MO), Route [Carcinogen]: INTRAPERITONEAL, ORAL, INTRAGASTRIC, Route [Carcinogen]: INTRAPERITONEAL, ORAL, INTRAGASTRIC, Route [Promoter]: ORAL, Species: RAT, Strain/Sex: WISTAR/MALE",liver: hepatocellular carcinoma
same,outcome,"Carcinogen: DIETHYLNITROSAMINE, 55-18-5, Doses [Carcinogen]: 2.5, 10, 25, 50 UG/G IN SALINE ONCE ON DAY 15 OF AGE, Doses [Promoter]: 0, 500 PPM IN DRINKING WATER FROM 28 DAYS OF AGE TO 12, 24, 40 WK POST-WEANING (STUDY DURATION: 42 WK), Route [Carcinogen]: INTRAPERITONEAL, Route [Promoter]: ORAL, Species: MOUSE, Strain/Sex: BALB/MALE",liver: adenoma
same,outcome,"Carcinogen: DIETHYLNITROSAMINE, 55-18-5, N-METHYLNITROSOUREA, 684-93-5, DIHYDROXY-DI-N- PROPYLNITROSAMINE, 53604-64-6, Carcinogen: DIETHYLNITROSAMINE, 55-18-5, N-METHYLNITROSOUREA, 684-93-5, DIHYDROXY-DI-N- PROPYLNITROSAMINE, 53604-64-6, Doses [Carcinogen]: 100 MG/KG IN SALINE AT BEGINNING OF STUDY, 20 MG/KG IN CITRATE BUFFERED SOLUTION ON D 2, 5, 8 AND 11, 0.1% IN DRINKING, Doses [Carcinogen]: 100 MG/KG IN SALINE AT BEGINNING OF STUDY, 20 MG/KG IN CITRATE BUFFERED SOLUTION ON D 2, 5, 8 AND 11, 0.1% IN DRINKING, Doses [Promoter]: 0, 500 PPM IN DIET BEGINNING POST SEQUENTIAL CARCINOGEN TREATMENT AND CONTINUING FOR DURATION OF STUDY (STUDY DURATION:, Route [Carcinogen]: IP, IP, ORAL, Route [Carcinogen]: IP, IP, ORAL, Route [Promoter]: ORAL, Species: RAT, Strain/Sex: F344/MALE",thyroid: adenoma
same,outcome,"Carcinogen: DIETHYLNITROSAMINE, 55-18-5, N-METHYLNITROSOUREA, 684-93-5, DIHYDROXY-DI-N- PROPYLNITROSAMINE, 53609-64-6, Carcinogen: DIETHYLNITROSAMINE, 55-18-5, N-METHYLNITROSOUREA, 684-93-5, DIHYDROXY-DI-N- PROPYLNITROSAMINE, 53609-64-6, Doses [Carcinogen]: 100 MG/KG IN SALINE AT BEGINNING OF STUDY, 20 MG/KG IN CITRATE BUFFERED SOLUTION ON D 2, 5, 8 AND 11, 0.1% IN DRINKING, Doses [Carcinogen]: 100 MG/KG IN SALINE AT BEGINNING OF STUDY, 20 MG/KG IN CITRATE BUFFERED SOLUTION ON D 2, 5, 8 AND 11, 0.1% IN DRINKING, Doses [Promoter]: 0, 500 PPM IN DIET BEGINNING POST SEQUENTIAL CARCINOGEN TREATMENT AND CONTINUING FOR DURATION OF STUDY (STUDY DURATION:, Route [Carcinogen]: IP, IP, ORAL, Route [Carcinogen]: IP, IP, ORAL, Route [Promoter]: ORAL, Species: RAT, Strain/Sex: F344/MALE",thyroid: adenoma
same,outcome,"Carcinogen: ETHYLNITROSOUREA, 759-73-9, Doses [Carcinogen]: 5 MG/KG ONCE AT 15 D OF AGE, Doses [Promoter]: 0, 500 PPM IN DRINKING WATER BEGINNING AT 5 WK OF AGE AND CONTINUING TO 51 WK OF AGE (STUDY DURATION: 52 WK), Route [Carcinogen]: INTRAPERITONEAL, Route [Promoter]: ORAL, Species: MOUSE, Strain/Sex: CD-1/FEMALE",liver: adenoma
same,outcome,"Carcinogen: ETHYLNITROSOUREA, 759-73-9, Doses [Carcinogen]: 5 MG/KG ONCE AT 15 D OF AGE, Doses [Promoter]: 0, 500 PPM IN DRINKING WATER BEGINNING AT 5 WK OF AGE AND CONTINUING TO 51 WK OF AGE (STUDY DURATION: 52 WK), Route [Carcinogen]: INTRAPERITONEAL, Route [Promoter]: ORAL, Species: MOUSE, Strain/Sex: CD-1/MALE",liver: carcinoma
same,outcome,"Carcinogen: ETHYLNITROSOUREA, 759-73-9, Doses [Carcinogen]: 20 MG/KG ONCE AT 15 D OF AGE, Doses [Promoter]: 0, 500 PPM IN DRINKING WATER BEGINNING AT 5 WK OF AGE AND CONTINUING TO 51 WK OF AGE (STUDY DURATION: 52 WK), Route [Carcinogen]: INTRAPERITONEAL, Route [Promoter]: ORAL, Species: MOUSE, Strain/Sex: CD-1/FEMALE","liver: adenoma, carcinoma"
same,outcome,"Carcinogen: ETHYLNITROSOUREA, 759-73-9, Doses [Carcinogen]: 20 MG/KG ONCE AT 15 D OF AGE, Doses [Promoter]: 0, 500 PPM IN DRINKING WATER BEGINNING AT 5 WK OF AGE AND CONTINUING TO 51 WK OF AGE (STUDY DURATION: 52 WK), Route [Carcinogen]: INTRAPERITONEAL, Route [Promoter]: ORAL, Species: MOUSE, Strain/Sex: CD-1/MALE",liver: carcinoma
same,outcome,"Carcinogen: N-BIS(2-HYDROXYPROPYL)NITROSAMINE, 53609-64-6, Doses [Carcinogen]: 280 MG/100 G/BW ONCE, Doses [Promoter]: 0, 0.05% IN DRINKING WATER FOR 25 WK (STUDY DURATION: 26 WK), Route [Carcinogen]: SUBCUTANEOUS, Route [Promoter]: ORAL, Species: RAT, Strain/Sex: F344/MALE",thyroid: neoplasm
same,outcome,"Carcinogen: N-METHYL-N-NITROSOUREA, 684-93-5, Doses [Carcinogen]: 30 MG/KG BW ONCE, Doses [Promoter]: 0, 0.5% IN DRINKING WATER FOR DURATION OF STUDY BEGINNING POST CARCINOGEN DOSE(STUDY DURATION: 14 MO), Route [Carcinogen]: INTRAVENOUS, Route [Promoter]: ORAL, Species: RAT, Strain/Sex: LOBUND-WISTAR/MALE","lung: carcinoma, prostate/seminal vesicles: tumor"
Oc1ccc(F)cc1,outcome,"Carcinogen: 7,12-DIMETHYLBENZ(A)ANTHRACENE, Doses [Carcinogen]: TOP, Route [Carcinogen]: DERMAL, Route [Promoter]: DERMAL, Species: MOUSE, Strain/Sex: FEMALE",integumentary system (skin)
COc1ccc2c(c1)c(CC(=O)O)c(C)n2C(=O)c1ccc(Cl)cc1,outcome,"Carcinogen: N-(4-(5-NITRO-2-FURYL)-2-THIAZOLYL)FORMAMIDE, 24554-26-5, Doses [Carcinogen]: 0.2% IN DIET FOR 7 WK, Doses [Promoter]: 0, 1 MG/KG/D IN DRINKING WATER FOR DURATION OF STUDY (STUDY DURATION: 92 WK), Route [Carcinogen]: ORAL, Route [Promoter]: ORAL, Species: RAT, Strain/Sex: SPRAGUE-DAWLEY/FEMALE",urinary tract: tumor
CCCCCCCCCc1ccc(O)cc1,outcome,"Carcinogen: 2',3-dimethyl-4-aminobiphenyl, 13394-86-0, Doses [Carcinogen]: 50 mg/kg every other wk for 10 injections from 7 wks of age, study duration 64 wks, Doses [Promoter]: 0, 25, 250, 2000 ppm in diet from 3 wks of age for 3 wks, Route [Carcinogen]: Subcutaneous, Route [Promoter]: Oral, Species: Rat, Strain/Sex: F344/Male (15-20/Group)","prostate: adenocarcinoma, no effect"
Cn1cc[nH]c1=S,outcome,"Carcinogen: Acrylonitrile, 79-06-1, Doses [Carcinogen]: 2-3 mg/kg in drinking water, study duration 2 mo, Doses [Promoter]: 100 mg/l in drinking water, study duration 2 mo, Route [Carcinogen]: Oral, Route [Promoter]: Oral, Species: Mouse, Strain/Sex: CD1/Female (20,?)/(30/ ?)",thyroid; no tumors
O=C(O)O,outcome,"Carcinogen: N-BUTYL-N-(4-HYDROXYBUTYL)NITROSAMINE, 3817-11-6, Doses [Carcinogen]: 0.05% IN DRINKING WATER FOR 4 WK, Doses [Promoter]: 0, 3% IN DIET FOR 32 WK BEGINNING 3 D POST LAST CARCINOGEN DOSE (STUDY DURATION: 36 WK, 3 D), Route [Carcinogen]: ORAL, Route [Promoter]: ORAL, Species: RAT, Strain/Sex: F344/MALE","urinary bladder: papilloma, carcinoma"
same,outcome,"Carcinogen: N-BUTYL-N-(4-HYDROXYBUTYL)NITROSAMINE, 3817-11-6, Doses [Carcinogen]: 0.05% IN DRINKING WATER FOR 4 WK, Doses [Promoter]: 0, 3.36% IN DIET BEGINNING POST LAST CARCINOGEN DOSE AND CONTINUING FOR 32 WK (STUDY DURATION: 37 WK), Route [Carcinogen]: ORAL, Route [Promoter]: ORAL, Species: RAT, Strain/Sex: WISTAR/MALE",urinary bladder: papilloma
same,outcome,"Carcinogen: N-BUTYL-N-(4-HYDROXYBUTYL)NITROSAMINE; 3817-11-6; Doses [Carcinogen]: 0.05% IN DRINKING WATER FOR 4 WK; Doses [Promoter]: 0; 4% IN DIET BEGINNING POST LAST CARCINOGEN DOSE AND CONTINUING FOR 32 WK STUDY DURATION: 37 WK), Route [Carcinogen]: ORAL, Route [Promoter]: ORAL, Species: RAT, Strain/Sex: WISTAR/MALE",urinary bladder: papilloma
same,outcome,"Carcinogen: O-PHENYLPHENOL, 90-43-7, Doses [Carcinogen]: 1.25% IN DIET FOR 104 WK, Doses [Promoter]: 0, 0.16% IN DIET FOR 104 WK (STUDY DURATION: 104 WK), Route [Carcinogen]: ORAL, Route [Promoter]: ORAL, Species: RAT, Strain/Sex: F344/MALE",bladder: carcinoma
same,outcome,"Carcinogen: O-PHENYLPHENOL, 90-43-7, Doses [Carcinogen]: 1.25% IN DIET FOR 104 WK, Doses [Promoter]: 0, 0.32% IN DIET FOR 104 WK (STUDY DURATION: 104 WK), Route [Carcinogen]: ORAL, Route [Promoter]: ORAL, Species: RAT, Strain/Sex: F344/MALE",bladder: carcinoma
same,outcome,"Carcinogen: O-PHENYLPHENOL, 90-43-7, Doses [Carcinogen]: 1.25% IN DIET FOR 104 WK, Doses [Promoter]: 0, 0.64% IN DIET FOR 104 WK (STUDY DURATION: 104 WK), Route [Carcinogen]: ORAL, Route [Promoter]: ORAL, Species: RAT, Strain/Sex: F344/MALE",bladder: carcinoma
